{"source": "paper PMC11539071", "about": "“Optimization of Biocatalytic Rhododendrol Production from Biogenic Rhododendrol Glycosides” (ACS Sustainable Chemistry & Engineering, 2024)", "key": {"[1]": {"tested_on": "T1, β-glucosidase from almonds", "T1 construct": "gene emulsin; native commercial enzyme preparation from almonds (Sigma-Aldrich)", "assay": "initial rates by HPLC of rhododendrol, Michaelis-Menten fit", "assay_type": "biochemical, Prunus dulcis", "conditions": "0.1 M phosphate buffer pH 6, 40 °C; substrate from crude glycoside mixture containing apiosylrhododendrin", "from_the_text": "initial rates by HPLC of rhododendrol, Michaelis-Menten fit on β-glucosidase from almonds"}, "[2]": {"biological_target": "T1, β-glucosidase from almonds", "assay": "initial rates by HPLC, product inhibition fit", "assay_type": "biochemical, Prunus dulcis", "conditions": "competitive; substrate betuloside at saturating level; 0.1 M phosphate buffer pH 6, 40 °C", "from_the_text": "initial rates by HPLC, product inhibition fit on β-glucosidase from almonds"}}, "data": [{"smiles": "C[C@H](CCc1ccc(O)cc1)O[C@@H]1O[C@H](CO)[C@@H](O)[C@H](O)[C@H]1O", "note": "(mixture of isomers) [betuloside]", "values": [{"measurement": "Km", "setting": "[1]", "value": "26.7 ± 3.76", "unit": "mM"}]}, {"smiles": "CC(O)CCc1ccc(O)cc1", "note": "(racemic) [rhododendrol]", "values": [{"measurement": "Ki", "setting": "[2]", "value": "7.13 ± 2.2", "unit": "mM"}]}, {"smiles": "OC[C@H]1OC(O)[C@H](O)[C@@H](O)[C@@H]1O", "note": "(stereo partly drawn) [glucose]", "values": [{"measurement": "Ki", "setting": "[2]", "value": "65.5 ± 17.2", "unit": "mM"}]}]}
